# Laboratory results from US10328092B2, “Methods and compositions for treatment of drug addiction” (The Royal Institution for the Advancement of Learning / …, priority 2015, dated 2019).
# What was measured:
# [1] = test system: mice; assay: Cocaine-induced behavioural sensitization, locomotor response; assay type: in vivo, mouse
# Method: A cocaine induced behavioral sensitization animal model of drug addiction was used. Sensitization refers to the augmentation of behavioral responses to drugs of abuse that occurs during their repeated administration and persists long after drug exposure is discontinued. In this paradigm mice are injected with 15 mg/kg cocaine and put in an open field box and measure the cocaine stimulatory effects on locomotor for 15 min. After the first run mice are injected with 10 ug of MPL and returned to their home cage.
# The response of mice to repeated doses of cocaine was compared. After habituating animals to handling, the animals receive an IP injection and have their locomotor activity monitored in open-field chambers using Ethovision software for 15 min. After two days of saline injections, mice received five daily injections of cocaine (15 mg/kg) and assayed for locomotion. Following 7-10 days without injections (withdrawal), mice receive a challenge dose of cocaine (also 15 mg/kg) and locomotor activity again assessed (see Examples 1 and 2). A minimum of three separate cohorts have been run.
# (§1) Locomotion was monitored in 30×30 cm plexiglass boxes by the EthoVision video-tracking system (Noldus) and performed near the end of the light phase of the light-dark cycle under dim red light. After habituating animals to handling, mice received IP injections of saline or cocaine and their activity was recorded for 15 min. Mice were tested during habituation to injection and the activity boxes (saline; days 1-2) and 5 repeated cocaine injections (15 mg/kg; days 3-7). Following 10 days without injections (withdrawal), mice receive a challenge dose of cocaine (15 mg/kg) and locomotor activity again assessed (day 17). Total distance traveled and stereotypy were evaluated from video by EthoVision. For stereotypy, the frequency of which the mouse stops moving (#pauses/min) was measured using a threshold start velocity of 2.00/second and a threshold stop velocity of 0 cm/s. The number of turns per minute (# turns/min) was measured by calculating the frequency for which the path of the mouse turns over a minimum distance of 3.00 cm. Velocity was assessed as the mean distance traveled (cm) over time (s).
# Mice were treated for […] with saline (1,2), then 5 consecutive days with 15 mg/kg cocaine (3-7). Animals then underwent a 9 day withdrawal period from cocaine. On day 9, they received an injection of saline or 50 μg/kg of LPS. 24 hours later, the mice were retested for the locomotor response in terms of distance (cm) traveled in 15 minutes.
# [2] = test system: mice; assay: Basal locomotion; assay type: in vivo, mouse
# Method: To determine whether the low TNFα response induced by MPLA can affect the behavioural response to cocaine, it was first assessed if MPLA can alter the basal locomotion of mice. Mice were injected with 10 ug of MPLA, and tested 24 hrs later. No difference in basal locomotion was observed (n=4), compared with saline injected control mice (FIG. 2).
# as §1, with “Mice were tested during habituation to injection and the activity boxes (saline; days 1-2) and 5 repeated cocaine injections (15 mg/kg; days 3-7).” left out
# [3] = test system: TNFα; assay: TNFα mRNA / protein in ventral striatum (NAc) after in vivo treatment; parameters: species or system mouse; conditions: for TNFα mRNA in the ventral striatum: single injection of MPLA 10 μg
# Method: To determine the effect of in vivo cocaine exposure on TNFα levels in the ventral striatum, TNFα mRNA and protein levels were measured in mice given intraperitoneal injections of saline or cocaine. […] To understand the impact of TNFα on synaptic function in the NAc, AMPA/NMDA ratios were measured at glutamatergic synapses on MSNs in the NAc core. Alteration in NAc core AMPA receptors are involved in the expression of behavioral sensitization to psychostimulants (Kalives, 2009).
# Mice (8-10 weeks) were perfused and their brains submerged overnight in 4% PFA, cryoprotected with 30% sucrose, and cut in 30 μm thick coronal slices using a cryostat. The sections were incubated for 4 hours with blocking solution (2% normal goat serum, 3% BSA, 0.2% Triton X-100 in PBS) before incubation overnight at 4 C with primary antibodies in blocking solution (rabbit anti-Iba1 antibody [019-19741, Wako; 1:800; RRID: AB_2566825], chicken anti-GFAP antibody [AB5541, Millipore; 1:500; RRID: AB_177521], rabbit anti-NeuN [ab104225, Abcam, 1:400; RRID: AB_10711153], and rabbit anti-TNFα antibody [ab6671, Abcam, 1:100; RRID: AB_305641] or mouse anti-TNFα antibody [ab1793, Abcam, 1:100; RRID: AB_302615]). Sections were washed (2×15 min with PBST [0.05% Tween20] and 1×15 min with PBS at RT) and incubated for 2 hrs at room temperature in secondary antibodies (anti-rabbit, anti-chicken, or anti-mouse IgG-conjugated Alexa Fluorochrome [Invitrogen; 1:400]). Sections were washed and briefly (<30 seconds) incubated with Hoechst 33342 [H1399, Molecular Probes; 1:10,000] in PBS. The stained sections were imaged using an Olympus FluoView FV1000 confocal microscope with Fluoview imaging software (FV10-ASW). Images of the ventral striatum (nucleus accumbens core and shell) were acquired with a 40× or 60× objective and stacks of 25-30 optical sections (1 μm per section) of depth were Z-projected into a single window and analysed using ImageJ software (NIH).
# The number of Iba1+ microglia were manually counted from 212×212 μm (60× objectives) or 317×317 μm (40× objectives) images. TNFα intensity was measured using the mean grey value of the entire image while Iba1 intensity measurements were obtained using a thresholded area to highlight only the microglia. Cell body area (μm^2) was measured based on Iba1 staining and using the freehand selection tool. Additional analysis of microglia morphology in saline and cocaine treated mice was done using IMARIS software (Bitplane). […] The following parameters were analyzed for 40 microglia per group: total process length (sum of length of all processes), total process volume, process diameter and number of branch points and terminals. […]
# After 40 cycles, the Ct values were determined.
# [4] = Sickness behavior in vivo
substance,measurement,setting,value
monophosphoryl lipid A [MPLA],initial response to cocaine challenge dose,"[1]; 7 daily saline injections, 9 days abstinence, MPLA 10 μg, cocaine 15 mg/kg next day",did not alter
same,locomotor response to a challenge dose of cocaine,"[1]; TNFα−/− mice, MPLA 10 μg",did not reduce
same,behavioral sensitization to cocaine,"[1]; TNFα−/− mice, MPLA 10 ug IP after first cocaine 15 mg/kg, re-tested one day later",no effect
same,behavioral response to cocaine,"[1]; WT mice, 10 days withdrawal, single MPLA 10 μg, tested 4 days later",did not reduce
same,behavioral (locomotor) response to cocaine challenge,"[1]; wildtype mice after withdrawal, MPLA 10 μg or 50 μg, tested 24 hours later, cocaine 15 mg/kg",dose dependently reduced
same,behavioral sensitization to cocaine vs saline treated mice,"[1]; wildtype mice, MPLA 10 ug IP after first cocaine 15 mg/kg, re-tested 24 hours later",reduced
same,"basal locomotion, distance",[2]; 24 hours after IP injection of 10 μg MPLA,5415±378 cm
same,basal locomotion vs saline injected mice,[2]; 24 hours after i.p. injection of 10 μg MPLA,No significant differences
same,"TNF-α levels in vivo, lower than LPS",[3]; compared with LPS,10 fold
same,TNFα mRNA in the ventral striatum,[3]; 4 hours,significantly increases
same,TNFα mRNA in the ventral striatum,[3]; 24 hours,significantly increases
same,sickness behavior,[4],without inducing sickness behavior
